# Measurements from patent US20110015162A1, “15,16-Methylene-17-hydroxy-19-nor-21-carboxylic acid-steroid Y-lactone derivative, use thereof and medicinal products containing the derivative” (Bayer Schering Pharma Aktiengesellschaft, priority 2007, published 2011).
# Experiments:
# [1] = molecular target: T1, fusion protein from the PR-ligand-binding domain and a Gal4-transactivation domain (Homo sapiens, UniProt P06401); assay: Progestational action by transactivation test (CHO K1 reporter cells); format: cell-based; conditions: CHO-K1, 16 h, read-out: Progesterone receptor Agonism efficacy
# T1 construct: expressed in transfected cells; host or cells: CHO K1 cells, stably transfected
# Experimental: 4. Determination of Progestational Action by Means of Transactivation Tests:
# The culture medium used for culture of the cells used for the assay was DMEM (Dulbecco's Modified Eagle Medium: […] glucose; PAA, #E15-009) with 10% FCS (Biochrom, S0115, batch #615B), 4 mM L-glutamine, 1% penicillin/streptomycin, 1 mg/ml G418 and 0.5 μg/ml puromycin.
# Reporter cell lines (CHO K1 cells stably transfected with a fusion protein from the PR-ligand-binding domain and a Gal4-transactivation domain and a reporter construct, which contained luciferase under the control of a Gal4-responsive promoter) were seeded at a density of 4×10^4 cells per well in white, opaque tissue culture plates each with 96 wells (PerkinElmer, #P12-106-017) and kept in culture medium with 3% DCC-FCS (serum treated with activated charcoal to remove interfering components contained in the serum). The test compounds were added eight hours later, and the cells were incubated with the compounds for 16 hours. The tests were carried out in triplicate. At the end of incubation the medium containing the effector was removed and replaced with lysis buffer. After luciferase assay substrate (Promega, #E1501) had been added, the 96-well plates were then put in a microplate luminometer (Pherastar, BMG Labtech), and the luminescence was measured. The IC50 values were evaluated using software for calculating dose-effect relations.
# [2] = molecular target: T2, progesterone receptor (Homo sapiens, UniProt P06401); assay: Progesterone receptor binding test; conditions: CF 1 = affinity of progesterone; CF >1 lower affinity, <1 higher affinity
# T2 construct: made in house; host or cells: Hi5 insect cells (cytosol)
# T2 sequence (P06401 1-933): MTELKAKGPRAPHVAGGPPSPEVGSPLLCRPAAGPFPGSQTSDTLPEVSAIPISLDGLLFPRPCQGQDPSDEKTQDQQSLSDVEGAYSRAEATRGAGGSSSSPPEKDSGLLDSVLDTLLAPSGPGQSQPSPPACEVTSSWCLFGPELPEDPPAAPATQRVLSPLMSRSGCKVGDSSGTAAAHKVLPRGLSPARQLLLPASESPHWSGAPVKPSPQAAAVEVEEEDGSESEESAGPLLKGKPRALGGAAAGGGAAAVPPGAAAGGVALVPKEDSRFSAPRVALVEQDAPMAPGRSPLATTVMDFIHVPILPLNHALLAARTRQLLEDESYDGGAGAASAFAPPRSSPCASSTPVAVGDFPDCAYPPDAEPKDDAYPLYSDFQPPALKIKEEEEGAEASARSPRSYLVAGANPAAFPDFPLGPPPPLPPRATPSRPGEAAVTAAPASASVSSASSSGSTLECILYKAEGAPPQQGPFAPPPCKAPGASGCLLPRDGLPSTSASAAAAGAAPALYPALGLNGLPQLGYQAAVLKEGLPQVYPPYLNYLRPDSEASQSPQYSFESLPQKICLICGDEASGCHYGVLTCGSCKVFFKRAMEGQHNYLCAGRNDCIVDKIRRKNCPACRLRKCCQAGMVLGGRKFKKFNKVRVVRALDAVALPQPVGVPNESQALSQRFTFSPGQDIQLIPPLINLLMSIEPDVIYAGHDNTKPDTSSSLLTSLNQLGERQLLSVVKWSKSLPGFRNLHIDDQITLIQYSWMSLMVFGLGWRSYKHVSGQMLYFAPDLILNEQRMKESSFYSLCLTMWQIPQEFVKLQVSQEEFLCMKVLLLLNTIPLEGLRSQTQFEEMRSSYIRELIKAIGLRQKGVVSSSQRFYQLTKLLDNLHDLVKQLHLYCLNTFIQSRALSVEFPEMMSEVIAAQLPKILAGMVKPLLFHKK
# Experimental: 1. Progesterone Receptor Binding Test:
# (§1) Using cytosol from progesterone receptor-expressing insect cells (Hi5), competitive binding to the progesterone receptor was determined from the ability to displace ^3H-progesterone as reference substance from the receptor.
# [3] = molecular target: T3, mineralocorticoid receptor (Homo sapiens, UniProt P08235); assay: Antimineralocorticoid action by transactivation test (MDCK reporter cells); format: cell-based; parameters: expressed in transfected cells; host or cells: MDCK cells;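 for Emax: percent inhibition of the aldosterone-stimulated reporter signal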
# T3 sequence (P08235 1-984): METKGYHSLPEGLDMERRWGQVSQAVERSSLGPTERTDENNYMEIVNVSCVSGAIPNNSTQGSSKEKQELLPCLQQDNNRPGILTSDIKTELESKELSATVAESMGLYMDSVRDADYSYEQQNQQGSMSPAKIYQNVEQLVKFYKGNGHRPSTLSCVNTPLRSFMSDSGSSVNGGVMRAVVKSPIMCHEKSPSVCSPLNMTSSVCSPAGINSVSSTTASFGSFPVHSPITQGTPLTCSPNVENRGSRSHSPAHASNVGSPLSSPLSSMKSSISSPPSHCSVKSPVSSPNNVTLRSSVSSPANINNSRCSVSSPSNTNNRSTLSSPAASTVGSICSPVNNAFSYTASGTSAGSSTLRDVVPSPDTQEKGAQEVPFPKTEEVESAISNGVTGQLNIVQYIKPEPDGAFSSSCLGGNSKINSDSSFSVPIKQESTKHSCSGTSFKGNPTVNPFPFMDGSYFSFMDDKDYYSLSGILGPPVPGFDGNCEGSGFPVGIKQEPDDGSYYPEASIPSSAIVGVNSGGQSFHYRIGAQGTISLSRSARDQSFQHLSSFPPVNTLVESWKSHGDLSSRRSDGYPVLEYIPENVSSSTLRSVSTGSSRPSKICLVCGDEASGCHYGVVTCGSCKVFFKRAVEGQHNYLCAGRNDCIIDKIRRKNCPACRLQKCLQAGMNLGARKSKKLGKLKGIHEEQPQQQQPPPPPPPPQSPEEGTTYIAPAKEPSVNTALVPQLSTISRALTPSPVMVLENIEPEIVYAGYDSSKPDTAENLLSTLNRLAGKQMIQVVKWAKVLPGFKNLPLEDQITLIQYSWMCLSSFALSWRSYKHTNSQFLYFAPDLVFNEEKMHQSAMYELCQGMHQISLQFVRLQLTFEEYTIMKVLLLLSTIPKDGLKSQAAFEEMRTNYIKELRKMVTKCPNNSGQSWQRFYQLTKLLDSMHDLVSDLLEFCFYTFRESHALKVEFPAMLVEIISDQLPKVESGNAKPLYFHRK
# Experimental: The test compounds were added eight hours later, and the cells were incubated with the compounds for 16 hours. The tests were carried out in triplicate. At the end of incubation the medium containing the effector was removed and replaced with lysis buffer. After luciferase assay substrate (Promega, #E1501) had been added, the 96-well plates were then put in a microplate luminometer (Pherastar, BMG Labtech), and the luminescence was measured. The IC50 values were evaluated using software for calculating dose-effect relations.
# 5. Determination of Antimineralocorticoid Action by Means of Transactivation Tests:
# The antimineralocorticoid activity of the test substances was determined as for the transactivation tests described above.
# The following modifications were undertaken: In this case reporter cell lines were used (MDCK cells) that express the human mineralocorticoid receptor, and transiently contain a reporter construct that contains luciferase under the control of a steroid hormone-responsive promoter.
# [4] = molecular target: T3, mineralocorticoid receptor; assay: Mineralocorticoid receptor binding test; parameters: made in house; host or cells: Hi5 insect cells (cytosol); conditions: reference substance 3H-aldosterone, cytosol from MR-expressing insect cells (Hi5)
# Experimental: as §1
# 2. Mineralocorticoid Receptor Binding Test:
# The test was carried out as in 1, with the following modifications: cytosol from mineralocorticoid receptor-expressing insect cells (Hi5) was used, and the reference substance was ^3H-aldosterone.
# T1 sequence (P04386 1-147 partner limits assumed, one chain of several): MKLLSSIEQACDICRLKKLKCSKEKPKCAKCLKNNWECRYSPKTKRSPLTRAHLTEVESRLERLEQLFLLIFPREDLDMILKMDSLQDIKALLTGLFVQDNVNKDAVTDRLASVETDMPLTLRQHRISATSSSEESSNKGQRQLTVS
smiles,measurement,setting,value
"C[C@]12CCC(=O)C=C1[C@@H]1C[C@@H]1[C@H]1[C@@H]3[C@@H]4C[C@@H]4[C@@]4(CCC(=O)O4)[C@@]3(C)CC[C@@H]12 [A, 6β, 7β;15β,16β-dimethylene-3-oxo-17-pregn-4-ene-21,17β-carbolactone, reference compound]",Emax,[1],72.2%
same,Progesterone receptor (PR) Competition factor,[2],2.7
same,IC50,"[3]; MDCK cells, with 1 nM aldosterone, read-out: Mineralocorticoid receptor Antagonism IC50",3.3 nM
same,Emax,"[3]; MDCK, read-out: Mineralocorticoid receptor Antagonism efficacy",64.1%
same,Mineralocorticoid receptor (MR) Competition factor,[4],0.5
